Measured values from ChEMBL document CHEMBL1177813, “Design and synthesis of trivalent ligands targeting opioid, cholecystokinin, and melanocortin receptors for the treatment of pain” (Bioorg Med Chem Lett, 2010).
pIC50, pKi: −log10 of the molar value. Calls of active or inactive are those of the source. No cut-off for these calls is given here.

Tests used:
[1] = Agonist activity at CCK receptor in Hartley guinea pig ileum longitudinal muscle with myenteric plexus assessed as inhibition of electrically-stimulated muscle contraction at 1 uM relative to KCl; format: functional, Cavia porcellus; parameters: scale not given: the % may be the effect or the level left
[2] = target: Delta-type opioid receptor (Homo sapiens, UniProt P41143); assay: Displacement of [3H]DPDPE from human delta opioid receptor expressed in mouse HN9.10 cells; format: cell-based
Chain of Delta-type opioid receptor (Homo sapiens, UniProt P41143) (P41143 whole entry): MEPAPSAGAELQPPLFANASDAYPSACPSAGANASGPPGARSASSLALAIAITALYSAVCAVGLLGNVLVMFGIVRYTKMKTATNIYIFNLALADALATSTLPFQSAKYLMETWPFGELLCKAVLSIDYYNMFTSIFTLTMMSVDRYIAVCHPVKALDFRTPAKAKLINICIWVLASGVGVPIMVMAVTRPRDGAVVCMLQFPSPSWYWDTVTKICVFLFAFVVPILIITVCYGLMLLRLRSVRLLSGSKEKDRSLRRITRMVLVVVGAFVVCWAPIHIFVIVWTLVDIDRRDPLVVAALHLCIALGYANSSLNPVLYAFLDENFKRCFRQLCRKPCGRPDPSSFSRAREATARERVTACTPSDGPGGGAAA

[3] = target: T1, Gastrin/cholecystokinin type B receptor (Homo sapiens, UniProt P32239); assay: Displacement of [125I]CCK-8(SO3) from human CCK2 receptor expressed in human HEK293 cells; format: cell-based; conditions: for pKi: read-out: Ki
T1 sequence (P32239 whole entry): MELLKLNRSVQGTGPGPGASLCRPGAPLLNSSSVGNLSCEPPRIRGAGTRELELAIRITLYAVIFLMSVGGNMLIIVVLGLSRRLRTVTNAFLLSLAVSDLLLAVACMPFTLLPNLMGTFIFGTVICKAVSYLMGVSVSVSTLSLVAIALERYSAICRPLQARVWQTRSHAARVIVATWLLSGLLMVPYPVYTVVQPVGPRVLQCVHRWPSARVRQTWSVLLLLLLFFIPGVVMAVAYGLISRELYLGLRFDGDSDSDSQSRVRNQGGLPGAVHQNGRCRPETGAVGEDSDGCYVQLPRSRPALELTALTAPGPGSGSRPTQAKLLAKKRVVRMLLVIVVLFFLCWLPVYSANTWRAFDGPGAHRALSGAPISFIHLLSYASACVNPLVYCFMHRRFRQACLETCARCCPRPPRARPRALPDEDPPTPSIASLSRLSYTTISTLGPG

[4] = target: Mu-type opioid receptor (Cavia porcellus) (UniProt P97266); assay: Agonist activity at mu opioid receptor in guinea pig ileum assessed as inhibition of electrically-stimulated muscle contraction at 1 uM; format: functional, tissue-based; parameters: scale not given: the % may be the effect or the level left
Chain of Mu-type opioid receptor (Cavia porcellus) (P97266 whole entry): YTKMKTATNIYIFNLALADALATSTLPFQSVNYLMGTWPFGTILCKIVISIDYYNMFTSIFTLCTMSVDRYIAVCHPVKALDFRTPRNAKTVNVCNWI

Mu-type opioid receptor [5] = target: Mu-type opioid receptor (Rattus norvegicus, UniProt P33535); assay: Displacement of [3H]DAMGO from rat mu opioid receptor expressed in mouse HN9.10 cells; format: cell-based
Chain of Mu-type opioid receptor (Rattus norvegicus, UniProt P33535) (P33535 whole entry): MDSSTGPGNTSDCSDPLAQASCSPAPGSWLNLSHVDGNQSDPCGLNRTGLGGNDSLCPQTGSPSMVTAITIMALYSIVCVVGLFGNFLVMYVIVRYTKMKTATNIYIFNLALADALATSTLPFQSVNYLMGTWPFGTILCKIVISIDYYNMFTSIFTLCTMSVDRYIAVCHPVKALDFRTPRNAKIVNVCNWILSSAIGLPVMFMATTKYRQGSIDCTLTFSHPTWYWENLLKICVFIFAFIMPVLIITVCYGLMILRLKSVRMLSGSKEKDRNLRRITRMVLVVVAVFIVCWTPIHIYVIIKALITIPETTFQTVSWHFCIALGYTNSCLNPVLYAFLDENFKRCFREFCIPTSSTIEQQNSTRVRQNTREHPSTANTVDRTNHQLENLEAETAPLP

[6] = target: T2, Cholecystokinin receptor type A (Homo sapiens, UniProt P32238); assay: Displacement of [125I]CCK-8(SO3) from human CCK1 receptor expressed in human HEK293 cells; format: cell-based; conditions: for pKi: read-out: Ki
T2 sequence (P32238 whole entry): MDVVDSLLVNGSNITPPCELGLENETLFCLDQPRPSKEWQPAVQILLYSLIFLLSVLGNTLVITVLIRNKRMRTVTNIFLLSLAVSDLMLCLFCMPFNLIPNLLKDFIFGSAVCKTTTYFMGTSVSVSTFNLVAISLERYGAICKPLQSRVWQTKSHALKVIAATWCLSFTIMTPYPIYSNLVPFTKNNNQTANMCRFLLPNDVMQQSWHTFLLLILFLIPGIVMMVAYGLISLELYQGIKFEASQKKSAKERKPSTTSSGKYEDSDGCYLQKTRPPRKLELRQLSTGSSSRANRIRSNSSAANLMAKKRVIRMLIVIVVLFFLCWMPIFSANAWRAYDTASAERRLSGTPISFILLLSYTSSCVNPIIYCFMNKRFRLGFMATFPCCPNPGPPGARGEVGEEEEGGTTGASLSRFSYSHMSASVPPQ

Melanocortin receptor 4 = Melanocortin receptor 4 (Homo sapiens, UniProt P32245); assay: Displacement of Eu-NDP-alphaMSH from human MC4 receptor expressed in human HEK293 cells; format: cell-based
Chain of Melanocortin receptor 4 (P32245 whole entry): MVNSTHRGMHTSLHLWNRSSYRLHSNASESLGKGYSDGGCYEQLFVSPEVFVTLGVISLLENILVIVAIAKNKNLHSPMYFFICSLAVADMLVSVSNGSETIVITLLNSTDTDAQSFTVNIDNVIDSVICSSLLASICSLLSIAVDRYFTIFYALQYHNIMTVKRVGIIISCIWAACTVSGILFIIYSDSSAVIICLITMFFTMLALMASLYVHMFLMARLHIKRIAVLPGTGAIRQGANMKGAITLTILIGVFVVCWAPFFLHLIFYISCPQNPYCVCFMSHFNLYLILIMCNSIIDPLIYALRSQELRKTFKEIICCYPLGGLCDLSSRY

Cavia porcellus = species on record: Cavia porcellus; assay: […] activity at CCK receptor in Hartley guinea pig ileum longitudinal muscle with myenteric plexus assessed as inhibition of CCK8-stimulated muscle contraction at 1 uM; format: functional, tissue-based
[7] = target: Delta-type opioid receptor (Mus musculus) (UniProt P32300); assay: Agonist activity at delta opioid receptor in mouse vas deferens assessed as inhibition of electrically-stimulated muscle contraction at 1 uM; format: functional, tissue-based; parameters: scale not given: the % may be the effect or the level left
Chain of Delta-type opioid receptor (Mus musculus) (P32300 whole entry): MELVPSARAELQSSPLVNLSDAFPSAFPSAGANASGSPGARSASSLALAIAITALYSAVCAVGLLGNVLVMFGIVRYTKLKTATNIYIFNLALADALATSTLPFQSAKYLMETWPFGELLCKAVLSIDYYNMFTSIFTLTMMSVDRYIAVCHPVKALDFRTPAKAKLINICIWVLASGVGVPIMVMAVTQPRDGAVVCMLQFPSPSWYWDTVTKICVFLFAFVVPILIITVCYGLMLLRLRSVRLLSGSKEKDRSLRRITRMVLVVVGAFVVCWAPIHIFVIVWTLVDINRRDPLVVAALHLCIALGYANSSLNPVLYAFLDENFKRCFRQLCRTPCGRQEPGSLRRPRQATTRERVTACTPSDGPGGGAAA

[8] = target: T3, Delta-type opioid receptor (Mus musculus, UniProt P32300); assay: Antagonist activity at delta opioid receptor in mouse vas deferens assessed as inhibition of DPDPE-induced muscle contraction; format: functional, tissue-based
T3 sequence (P32300 whole entry): as above

Mu-type opioid receptor [9] = target: Mu-type opioid receptor (Cavia porcellus, UniProt P97266); assay: Agonist activity at mu opioid receptor in guinea pig ileum assessed as inhibition of electrically-stimulated muscle contraction; format: functional, tissue-based
Chain of Mu-type opioid receptor (Cavia porcellus, UniProt P97266) (P97266 whole entry): as the sequence (P97266 whole entry) above

[10] = target: T3, Delta-type opioid receptor; assay: Agonist activity at delta opioid receptor in mouse vas deferens assessed as inhibition of electrically-stimulated muscle contraction; format: functional, tissue-based
[11] = […] activity at CCK receptor in Hartley guinea pig ileum longitudinal muscle with myenteric plexus assessed as inhibition of CCK8-stimulated muscle contraction; format: functional, Cavia porcellus
Homo sapiens = species on record: Homo sapiens; assay: Selectivity ratio of Ki for human CCK1 receptor to Ki for human CCk2 receptor

Work on `N=C(N)NCCC[C@@H]1NC(=O)[C@H](Cc2ccc(Cl)cc2)NC(=O)[C@H](Cc2cnc[nH]2)NC(=O)CNC(=O)[C@H](NC(=O)[C@@H](N)Cc2ccc(O)cc2)CC(=O)NCCCC[C@@H](C(=O)N[C@@H](CC(=O)O)C(=O)N[C@H](Cc2ccccc2)C(N)=O)NC(=O)[C@H](Cc2cc3ccccc3[nH]2)NC1=O` yielded an Activity [1] of 0%, a pIC50 [2] of 5.60 and a pKi [2] of 5.89. For the same compound, the pIC50 [3] was 6.00, the pKi [3] was 6.03 and the Activity [4] was 0%. It also gave a pIC50 (Mu-type opioid receptor [5]) of 5.40, a pKi (Mu-type opioid receptor [5]) of 5.68 and a pIC50 [6] of 6.90. For the same compound, the pKi [6] was 6.25, the pIC50 (Melanocortin receptor 4) was 7.49 and the Ke (Cavia porcellus) was “inactive”. The Activity [7] was 16%.

`CCCC[C@H](NC(=O)[C@H](Cc1c[nH]c2ccccc12)NC(=O)[C@H](CCCNC(=N)N)NC(=O)[C@@H](Cc1ccc2ccccc2c1)NC(=O)[C@H](Cc1cnc[nH]1)NC(=O)[C@@H]1Cc2ccccc2CN1C(=O)C(N)Cc1c(C)cc(O)cc1C)C(=O)N[C@@H](CC(=O)O)C(=O)N[C@@H](Cc1ccccc1)C(N)=O` (single isomer, unassigned) gave an Activity [1] of 0%, a pIC50 [2] of 8.70 and a pKi [2] of 9.04. For the same compound, the pIC50 [3] was 6.70, the pKi [3] was 6.70 and the Activity [4] was 5%. For the same compound, the pIC50 [8] was 8.60, the pIC50 (Mu-type opioid receptor [5]) was 7.00 and the pKi (Mu-type opioid receptor [5]) was 7.33. For the same compound, the pIC50 [6] was 7.80, the pKi [6] was 7.82 and the pIC50 (Melanocortin receptor 4) was 6.64. For the same compound, the Ke (Cavia porcellus) was “inactive”.

For `Cc1cc(O)cc(C)c1C[C@H](N)C(=O)N1CC(=O)N[C@@H](Cc2cnc[nH]2)C(=O)N[C@H](Cc2ccc3ccccc3c2)C(=O)N[C@@H](CCCNC(=N)N)C(=O)N[C@@H](Cc2c[nH]c3ccccc23)C(=O)N[C@H](C(=O)N[C@@H](CC(=O)O)C(=O)N[C@@H](Cc2ccccc2)C(N)=O)CSSC[C@@H](N)C1=O`, the pIC50 (Mu-type opioid receptor [9]) was 6.55, the Activity [1] was 0% and the pIC50 [2] was 7.90. For the same compound, the pKi [2] was 8.25, the Ki ([3]; hek293) was “Not Active” and the pIC50 (Mu-type opioid receptor [5]) was 7.90. The pKi (Mu-type opioid receptor [5]) was 8.23, the pIC50 [10] was 6.21 and the Ki ([6]; hek293) was “Not Active”. For the same compound, the pIC50 (Melanocortin receptor 4) was 6.36 and the Ke (Cavia porcellus) was “inactive”.

Compound `CCCC[C@H](NC(=O)[C@H](Cc1c[nH]c2ccccc12)NC(=O)[C@H](CCCNC(=N)N)NC(=O)[C@@H](Cc1ccc2ccccc2c1)NC(=O)[C@H](Cc1cnc[nH]1)NC(=O)[C@H](Cc1ccccc1)NC(=O)CNC(=O)[C@@H](C)NC(=O)[C@@H](N)Cc1c(C)cc(O)cc1C)C(=O)N[C@@H](CC(=O)O)C(=O)N[C@@H](Cc1ccccc1)C(N)=O` has a pIC50 (Mu-type opioid receptor [9]) of 8.08, an Activity [1] of 0% and a pIC50 [3] of 6.90. It also gave a pKi [3] of 6.96, a pIC50 (Mu-type opioid receptor [5]) of 9.60 and a pKi (Mu-type opioid receptor [5]) of 9.89. For the same compound, the pIC50 [10] was 7.96, the pIC50 [6] was 7.70 and the pKi [6] was 7.74. For the same compound, the pIC50 (Melanocortin receptor 4) was 6.80 and the Ke [11] was 940 nM.

`CCCC[C@H](NC(=O)[C@H](Cc1c[nH]c2ccccc12)NC(=O)[C@H](CCCNC(=N)N)NC(=O)[C@@H](Cc1ccccc1)NC(=O)[C@H](Cc1cnc[nH]1)NC(=O)[C@H](Cc1ccccc1)NC(=O)CNC(=O)[C@@H](C)NC(=O)[C@@H](N)Cc1ccc(O)cc1)C(=O)N[C@@H](CC(=O)O)C(=O)N[C@@H](Cc1ccccc1)C(N)=O` gave a pIC50 (Mu-type opioid receptor [9]) of 6.89, an Activity [1] of 0% and a pIC50 [2] of 7.90. The pKi [2] was 8.21, the pIC50 [3] was 7.50 and the pKi [3] was 7.74. For the same compound, the pIC50 (Mu-type opioid receptor [5]) was 7.50, the pKi (Mu-type opioid receptor [5]) was 7.85 and the pIC50 [10] was 7.40. It also gave a pIC50 [6] of 5.60, a pKi [6] of 5.85 and a pIC50 (Melanocortin receptor 4) of 5.89. For the same compound, the Ke (Cavia porcellus) was “inactive”.

Compound `CCCC[C@H](NC(=O)[C@H](Cc1c[nH]c2ccccc12)NC(=O)[C@H](CCCNC(=N)N)NC(=O)[C@@H](Cc1ccc2ccccc2c1)NC(=O)[C@H](Cc1cnc[nH]1)NC(=O)[C@H](Cc1ccccc1)NC(=O)CNC(=O)[C@@H](C)NC(=O)[C@@H](N)Cc1ccc(O)cc1)C(=O)N[C@@H](CC(=O)O)C(=O)N[C@@H](Cc1ccccc1)C(N)=O` has a pIC50 (Mu-type opioid receptor [9]) of 6.70, a Ratio Ki (Homo sapiens) of 0.075 and an Activity [1] of 0%. It also gave a pIC50 [2] of 8.20, a pKi [2] of 8.54 and a pIC50 [3] of 6.90. It also gave a pKi [3] of 6.92, a pIC50 (Mu-type opioid receptor [5]) of 8.90 and a pKi (Mu-type opioid receptor [5]) of 9.16. For the same compound, the pIC50 [10] was 7.22, the pIC50 [6] was 8.00 and the pKi [6] was 8.05. The pIC50 (Melanocortin receptor 4) was 6.59 and the Ke (Cavia porcellus) was “inactive”.

For `CCCC[C@H](NC(=O)[C@H](Cc1c[nH]c2ccccc12)NC(=O)[C@H](CCCNC(=N)N)NC(=O)[C@@H](Cc1ccc2ccccc2c1)NC(=O)[C@H](Cc1cnc[nH]1)NC(=O)[C@H](Cc1ccccc1)NC(=O)[C@@H](C)NC(=O)[C@@H](N)Cc1ccc(O)cc1)C(=O)N[C@@H](CC(=O)O)C(=O)N[C@@H](Cc1ccccc1)C(N)=O`, the pIC50 (Mu-type opioid receptor [9]) was 5.64, the Ratio Ki (Homo sapiens) was 119 and the Activity [1] was 0%. For the same compound, the pIC50 [2] was 7.10, the pKi [2] was 7.38 and the pIC50 [3] was 6.70. For the same compound, the pKi [3] was 6.72, the pIC50 (Mu-type opioid receptor [5]) was 6.30 and the pKi (Mu-type opioid receptor [5]) was 6.60. The pIC50 [10] was 6.43, the pIC50 [6] was 8.80 and the pKi [6] was 8.80. The pIC50 (Melanocortin receptor 4) was 6.15 and the Ke (Cavia porcellus) was “inactive”.
